Laboratory results taken from PubChem BioAssay AID1963850 (Molecular Pharmacology Branch, DTP, NCI, 2024).

Test system: 192522-019-R-J2-PDC complex tumor spheroid viability
Test: Anticancer human tumor 192522-019-R-J2-PDC patient-derived colon adenocarcinoma cell line growth inhibition [POLQ]
Conditions: for IC50: curve of first compound; for viability, T/C: stronger effect = lower value
Summary of the method: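 Patient-derived tumour cells were co-cultured with HUVEC and mesenchymal stem cells as multicellular spheroids at 37 °C. They were treated with POLQ inhibitors (novobiocin, ART-558, RP6685) alone or combined with other agents. Top concentrations were at or near clinical Cmax (otherwise 10 microM; SN-38 at 1 microM), decreasing in half-log steps.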

[1] = second compound 0.0316 µM, first compound 0.0316 µM
[2] = second compound 0.0316 µM, first compound 0.1 µM
[3] = second compound 0.1 µM, first compound 0.0316 µM
[4] = second compound 0.1 µM, first compound 0.1 µM
[5] = second compound 0.316 µM, first compound 0.0316 µM
[6] = second compound 0.316 µM, first compound 0.1 µM
[7] = second compound 1 µM, first compound 0.0316 µM
[8] = second compound 1 µM, first compound 0.1 µM
[9] = second compound 3.16 µM, first compound 0.0316 µM
[10] = second compound 3.16 µM, first compound 0.1 µM
[11] = second compound 10 µM, first compound 0.0316 µM
[12] = second compound 10 µM, first compound 0.1 µM
[13] = second compound 0.0316 µM, first compound 0.316 µM
[14] = second compound 0.0316 µM, first compound 1 µM
[15] = second compound 0.0316 µM, first compound 3.16 µM
[16] = second compound 0.0316 µM, first compound 10 µM
[17] = second compound 0.1 µM, first compound 0.316 µM
[18] = second compound 0.1 µM, first compound 1 µM
[19] = second compound 0.1 µM, first compound 3.16 µM
[20] = second compound 0.1 µM, first compound 10 µM
[21] = second compound 0.316 µM, first compound 0.316 µM
[22] = second compound 0.316 µM, first compound 1 µM
[23] = second compound 0.316 µM, first compound 3.16 µM
[24] = second compound 0.316 µM, first compound 10 µM
[25] = second compound 1 µM, first compound 0.316 µM
[26] = second compound 1 µM, first compound 1 µM
[27] = second compound 1 µM, first compound 3.16 µM
[28] = second compound 1 µM, first compound 10 µM
[29] = second compound 3.16 µM, first compound 0.316 µM
[30] = second compound 3.16 µM, first compound 1 µM
[31] = second compound 3.16 µM, first compound 3.16 µM
[32] = second compound 3.16 µM, first compound 10 µM
[33] = second compound 10 µM, first compound 0.316 µM
[34] = second compound 10 µM, first compound 1 µM
[35] = second compound 10 µM, first compound 3.16 µM
[36] = second compound 10 µM, first compound 10 µM
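Note: spheroids exposed to drugs for seven days before reading.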
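Throughout, for viability, T/C: 100% = DMSO vehicle control viability in luminescence.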

Compound: CC[C@@]1(O)C(=O)OCc2c1cc1n(c2=O)Cc2cc3c(CN(C)C)c(O)ccc3nc2-1 + Nc1ccc(C#CCN(C(=O)Cc2ncc(C(F)(F)F)cc2C(F)(F)F)c2ccc(F)cc2)nn1
- IC50 (second compound 0.0316 µM): > 0.1 µM
- IC50 (second compound 0.1 µM): > 0.1 µM
- IC50 (second compound 0.316 µM): > 0.1 µM
- IC50 (second compound 1 µM): > 0.1 µM
- IC50 (second compound 3.16 µM): > 0.1 µM
- IC50 (second compound 10 µM): > 0.1 µM
- viability, T/C (second compound 0.0316 µM, first compound 0.000316 µM): 96.2%
- viability, T/C (second compound 0.0316 µM, first compound 0.001 µM): 103%
- viability, T/C (second compound 0.0316 µM, first compound 0.00316 µM): 97.1%
- viability, T/C (second compound 0.0316 µM, first compound 0.01 µM): 108%
- viability, T/C [1]: 98.5%
- viability, T/C [2]: 77.3%
- viability, T/C (second compound 0.1 µM, first compound 0.000316 µM): 111%
- viability, T/C (second compound 0.1 µM, first compound 0.001 µM): 105%
- viability, T/C (second compound 0.1 µM, first compound 0.00316 µM): 103%
- viability, T/C (second compound 0.1 µM, first compound 0.01 µM): 99%
- viability, T/C [3]: 107%
- viability, T/C [4]: 79.1%
- viability, T/C (second compound 0.316 µM, first compound 0.000316 µM): 107%
- viability, T/C (second compound 0.316 µM, first compound 0.001 µM): 109%
- viability, T/C (second compound 0.316 µM, first compound 0.00316 µM): 97.8%
- viability, T/C (second compound 0.316 µM, first compound 0.01 µM): 103%
- viability, T/C [5]: 95.7%
- viability, T/C [6]: 77.7%
- viability, T/C (second compound 1 µM, first compound 0.000316 µM): 113%
- viability, T/C (second compound 1 µM, first compound 0.001 µM): 104%
- viability, T/C (second compound 1 µM, first compound 0.00316 µM): 106%
- viability, T/C (second compound 1 µM, first compound 0.01 µM): 109%
- viability, T/C [7]: 97.8%
- viability, T/C [8]: 78.2%
- viability, T/C (second compound 3.16 µM, first compound 0.000316 µM): 99.6%
- viability, T/C (second compound 3.16 µM, first compound 0.001 µM): 99.9%
- viability, T/C (second compound 3.16 µM, first compound 0.00316 µM): 103%
- viability, T/C (second compound 3.16 µM, first compound 0.01 µM): 99.3%
- viability, T/C [9]: 97.5%
- viability, T/C [10]: 84.8%
- viability, T/C (second compound 10 µM, first compound 0.000316 µM): 106%
- viability, T/C (second compound 10 µM, first compound 0.001 µM): 94.7%
- viability, T/C (second compound 10 µM, first compound 0.00316 µM): 101%
- viability, T/C (second compound 10 µM, first compound 0.01 µM): 95.1%
- viability, T/C [11]: 92.3%
- viability, T/C [12]: 87%

Compound: CCCS(=O)(=O)Nc1ccc(F)c(C(=O)c2c[nH]c3ncc(-c4ccc(Cl)cc4)cc23)c1F + Nc1ccc(C#CCN(C(=O)Cc2ncc(C(F)(F)F)cc2C(F)(F)F)c2ccc(F)cc2)nn1
- IC50 (second compound 0.0316 µM): > 10 µM
- IC50 (second compound 0.1 µM): > 10 µM
- IC50 (second compound 0.316 µM): > 10 µM
- IC50 (second compound 1 µM): > 10 µM
- IC50 (second compound 3.16 µM): > 10 µM
- IC50 (second compound 10 µM): > 10 µM
- viability, T/C [1]: 109%
- viability, T/C [2]: 95.2%
- viability, T/C [13]: 109%
- viability, T/C [14]: 98.3%
- viability, T/C [15]: 121%
- viability, T/C [16]: 66.9%
- viability, T/C [3]: 106%
- viability, T/C [4]: 107%
- viability, T/C [17]: 104%
- viability, T/C [18]: 99.9%
- viability, T/C [19]: 101%
- viability, T/C [20]: 67.9%
- viability, T/C [5]: 102%
- viability, T/C [6]: 98.7%
- viability, T/C [21]: 99.4%
- viability, T/C [22]: 102%
- viability, T/C [23]: 101%
- viability, T/C [24]: 83.6%
- viability, T/C [7]: 98%
- viability, T/C [8]: 107%
- viability, T/C [25]: 97.9%
- viability, T/C [26]: 110%
- viability, T/C [27]: 125%
- viability, T/C [28]: 94.1%
- viability, T/C [9]: 101%
- viability, T/C [10]: 102%
- viability, T/C [29]: 98.4%
- viability, T/C [30]: 99.9%
- viability, T/C [31]: 113%
- viability, T/C [32]: 86.6%
- viability, T/C [11]: 105%
- viability, T/C [12]: 106%
- viability, T/C [33]: 99.6%
- viability, T/C [34]: 110%
- viability, T/C [35]: 118%
- viability, T/C [36]: 78.1%

Compound: CC1COCCN1c1cc(C2(S(C)(=N)=O)CC2)nc(-c2ccnc3[nH]ccc23)n1 (stereo unspecified) + COC1C(OC(N)=O)C(O)C(Oc2ccc3c(O)c(NC(=O)c4ccc(O)c(CC=C(C)C)c4)c(=O)oc3c2C)OC1(C)C
- IC50 (second compound 0.0316 µM): 4.72 µM
- IC50 (second compound 0.1 µM): 4.58 µM
- IC50 (second compound 0.316 µM): 3.33 µM
- IC50 (second compound 1 µM): 5.31 µM
- IC50 (second compound 3.16 µM): 5.42 µM
- IC50 (second compound 10 µM): 5.18 µM
- viability, T/C [1]: 108%
- viability, T/C [2]: 94.3%
- viability, T/C [13]: 99.6%
- viability, T/C [14]: 97.3%
- viability, T/C [15]: 61.3%
- viability, T/C [16]: 28.7%
- viability, T/C [3]: 118%
- viability, T/C [4]: 99%
- viability, T/C [17]: 103%
- viability, T/C [18]: 95.4%
- viability, T/C [19]: 56.2%
- viability, T/C [20]: 36.1%
- viability, T/C [5]: 103%
- viability, T/C [6]: 99.2%
- viability, T/C [21]: 108%
- viability, T/C [22]: 95.8%
- viability, T/C [23]: 51%
- viability, T/C [24]: 31.9%
- viability, T/C [7]: 101%
- viability, T/C [8]: 103%
- viability, T/C [25]: 99%
- viability, T/C [26]: 97.3%
- viability, T/C [27]: 63.1%
- viability, T/C [28]: 34%
- viability, T/C [9]: 102%
- viability, T/C [10]: 109%
- viability, T/C [29]: 104%
- viability, T/C [30]: 91.8%
- viability, T/C [31]: 60.9%
- viability, T/C [32]: 37.8%
- viability, T/C [11]: 104%
- viability, T/C [12]: 103%
- viability, T/C [33]: 114%
- viability, T/C [34]: 95.7%
- viability, T/C [35]: 62.9%
- viability, T/C [36]: 33.2%
